Consider 28 compounds from patent publication US10280165B2, “Pyridopyrimidinones and methods of use thereof” (Genentech, Inc., priority 2015, dated 2019).

The experiment has as its target HEK cells stably transfected with tetracycline inducible hNR1 and hNR2A (Homo sapiens (Human), UniProt Q05586+Q12879). Description: Assay 1: Cell-Based Assay (cytosolic calcium, positive allosteric modulation). As to conditions: for Emax: HEK293, scaled relative to 100 μM L-glutamate maximal response (100%) and 0 μM L-glutamate (0%), with 30 μM glycine and 300 nM L-glutamate, read-out: Max %; for EC50: with 30 μM glycine and 300 nM L-glutamate (EC30), given for compounds reaching maximal response plateaus. Here is the method: Assay 1: Cell-Based Assay
HEK cells stably transfected with tetracycline inducible hNR1 and hNR2A were seeded into clear bottom 384 well poly-D-lysine coated plates (2.5×10^4 cells per well) in Minimum Essential Media (MEM; without L-) including 7.5 μg mL doxycycline and 500 μM (+)-ketamine. The cells were incubated at 37° C. in 5% CO2 for 24 h. For measurement of changes in cytosolic calcium, the seeding media was removed and the cells incubated at 37° C. for 60 min with 1× Becton Dickinson Calcium Assay Kit reagent in Hanks Balanced Salt Solution (HBSS; w/o magnesium, including 1.8 mM calcium, 0.65 mg ml^−1 probenecid and 10 μM (+)-ketamine, pH 7.15) then allowed to equilibrate to rt for 30 min. Concentration-effect curves to Positive Allosteric Modulators (PAMs) were constructed by adding different concentrations (with 30 μM glycine and 300 nM L-glutamate (EC30)) to different wells in HBSS. Compounds were added after a 10 second baseline read and maximum level of relative fluorescence units (RFU) was measured over a 5 min period. Responses were scaled relative to 100 μM L-glutamate maximal response (100%) and 0 μM L-glutamate (0%). EC50 values are provided for compounds reaching maximal response plateaus, and the max % (EC50 (--)) only if no plateau was reached.
A four-parameter Hill equation was fitted to individual concentration-effect curves:
[formula] in which Y, S0, Sinf, AC50, n and c were effect, lower-asymptote, upper-asymptote, mid-point location, slope parameter, and concentration respectively.

Sequence of HEK cells stably transfected with tetracycline inducible hNR1 and hNR2A (Q12879 23-1464, other chains not shown): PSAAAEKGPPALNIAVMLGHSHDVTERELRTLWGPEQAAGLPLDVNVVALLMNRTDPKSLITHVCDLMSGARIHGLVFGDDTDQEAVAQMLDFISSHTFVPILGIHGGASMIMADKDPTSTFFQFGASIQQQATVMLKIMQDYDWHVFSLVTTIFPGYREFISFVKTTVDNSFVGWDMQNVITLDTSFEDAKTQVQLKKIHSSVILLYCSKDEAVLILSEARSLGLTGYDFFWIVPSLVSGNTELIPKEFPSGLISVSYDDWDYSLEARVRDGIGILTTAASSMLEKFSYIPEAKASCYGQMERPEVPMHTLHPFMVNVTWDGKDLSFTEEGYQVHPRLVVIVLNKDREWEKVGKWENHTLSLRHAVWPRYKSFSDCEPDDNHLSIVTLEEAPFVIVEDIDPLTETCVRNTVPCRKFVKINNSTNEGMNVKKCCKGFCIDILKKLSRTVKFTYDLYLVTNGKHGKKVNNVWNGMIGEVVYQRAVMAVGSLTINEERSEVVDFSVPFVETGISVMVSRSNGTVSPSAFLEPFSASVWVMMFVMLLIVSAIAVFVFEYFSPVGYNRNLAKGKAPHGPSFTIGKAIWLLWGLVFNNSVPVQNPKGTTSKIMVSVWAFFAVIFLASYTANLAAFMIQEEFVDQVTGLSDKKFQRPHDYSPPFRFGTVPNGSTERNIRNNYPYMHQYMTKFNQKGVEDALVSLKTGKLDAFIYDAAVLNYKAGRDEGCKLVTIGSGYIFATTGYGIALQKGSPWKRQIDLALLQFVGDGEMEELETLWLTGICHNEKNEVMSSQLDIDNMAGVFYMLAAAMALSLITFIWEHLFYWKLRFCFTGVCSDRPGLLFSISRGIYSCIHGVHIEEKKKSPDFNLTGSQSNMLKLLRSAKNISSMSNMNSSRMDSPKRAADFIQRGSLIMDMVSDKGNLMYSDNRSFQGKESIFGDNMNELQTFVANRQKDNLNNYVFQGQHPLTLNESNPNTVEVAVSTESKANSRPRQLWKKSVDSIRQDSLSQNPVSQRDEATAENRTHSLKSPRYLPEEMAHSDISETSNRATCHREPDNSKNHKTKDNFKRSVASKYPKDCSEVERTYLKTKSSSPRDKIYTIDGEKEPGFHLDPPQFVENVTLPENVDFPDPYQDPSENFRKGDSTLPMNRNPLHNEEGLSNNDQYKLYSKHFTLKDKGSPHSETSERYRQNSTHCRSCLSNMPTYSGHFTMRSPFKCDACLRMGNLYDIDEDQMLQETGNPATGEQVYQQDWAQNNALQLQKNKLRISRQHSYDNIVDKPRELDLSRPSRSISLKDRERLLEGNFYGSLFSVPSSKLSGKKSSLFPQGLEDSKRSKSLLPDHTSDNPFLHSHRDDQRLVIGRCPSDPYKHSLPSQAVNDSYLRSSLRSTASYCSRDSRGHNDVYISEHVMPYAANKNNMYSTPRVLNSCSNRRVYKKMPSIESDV

`CCNC(=O)c1cc(C)cc2nc(Cn3nc(C(F)(F)F)cc3C3CC3)cc(=O)n12` [Compound 32]: the Emax came out at 136%.
The EC50 is the midpoint of the concentration-response curve. Consider `CCNC(=O)c1c(C)ccc2nc(Cn3nc(C(F)(F)F)cc3C3CC3)cc(=O)n12` [Compound 17, 2-[[5-cyclopropyl-3-(trifluoromethyl)pyrazol-1-yl]methyl]-N-ethyl-7-methyl-4-oxo-pyrido[1,2-a]pyrimidine-6-carboxamide], for which the Emax worked out at 148% and the half-maximal effective concentration (EC50) was found to be 4 µM.
Turning to `COc1ccc2nc(Cn3nc(Cl)cc3Cl)cc(=O)n2c1C1CC1C` (centres unmarked) [Compound 55, 2-((3,5-dichloro-1H-pyrazol-1-yl)methyl)-7-methoxy-6-(2-methylcyclopropyl)-4H-pyrido[1,2-a]pyrimidin-4-one], the Emax amounted to 116% and the EC50 was 0.102 µM.
For `N#C[C@@H]1C[C@H]1c1c(F)ccc2nc(Cn3nc(C(F)(F)F)cc3Cl)cc(=O)n12` [Compound 45, (1R,2R)-2-[2-[[5-chloro-3-(trifluoromethyl)pyrazol-1-yl]methyl]-7-fluoro-4-oxo-pyrido[1,2-a]pyrimidin-6-yl]cyclopropanecarbonitrile], the Emax turned out to be 151%.
On to `CNC(=O)c1c(C)ccc2nc(Cc3cccc(C4CC4)c3F)cc(=O)n12` [Compound 24, 2-[(3-cyclopropyl-2-fluoro-phenyl)methyl]-N,7-dimethyl-4-oxo-pyrido[1,2-a]pyrimidine-6-carboxamide], for which the Emax was determined as 67%.
Take `CCN(Cc1cc(=O)n2c(OC)cccc2n1)c1ccc(F)cc1` [Compound 8, 2-[(N-ethyl-fluoro-anilino)methyl]-6-methoxy-pyrido[1,2-a]pyrimidin-4-one]: the Emax was determined as 117%.
Same read-out and setting: the figure for `CNC(=O)c1c(C)ccc2nc(Cc3cccc(C(F)(F)F)c3F)cc(=O)n12` [Compound 22, 2-[[2-fluoro-3-(trifluoromethyl)phenyl]methyl]-N,7-dimethyl-4-oxo-pyrido[1,2-a]pyrimidine-6-carboxamide] is 69%.
`CCN(Cc1cc(=O)n2c(C(=O)NC)c(C)ccc2n1)c1ccc(F)cc1` [Compound 27, 2-[(N-ethyl-4-fluoro-anilino)methyl]-N,7-dimethyl-4-oxo-pyrido[1,2-a]pyrimidine-6-carboxamide]: the Emax stood at 162% and the concentration for a half-maximal effect (EC50) came to 2.7 µM.
As for `CCN(Cc1cc(=O)n2c(-c3cncnc3)cccc2n1)c1ccc(F)cc1` [Compound 12, 2-[(N-ethyl-4-fluoro-anilino)methyl]-6-pyrimidin-5-yl-pyrido[1,2-a]pyrimidin-4-one], the Emax was 161% and the concentration for a half-maximal effect (EC50) was determined as 6.4 µM.
Turning to `Cc1ccc2nc(Cn3nc(C(F)(F)F)cc3Cl)cc(=O)n2c1[C@@H]1C[C@H]1C#N` [Compound 35, (1R,2R)-2-[2-[[5-chloro-3-(trifluoromethyl)pyrazol-1-yl]methyl]-7-methyl-4-oxo-pyrido[1,2-a]pyrimidin-6-yl]cyclopropanecarbonitrile], the Emax came to 132% and the EC50 was found to be 0.077 µM.
On to `CCNC(=O)c1cccc2nc(Cc3cccc(C#N)c3F)cc(=O)n12` [Compound 21, 2-[(3-cyano-2-fluoro-phenyl)methyl]-N-ethyl-4-oxo-pyrido[1,2-a]pyrimidine-6-carboxamide], for which the Emax was 43%.
For the compound `COc1ccc2nc(Cn3nc(C(F)(F)F)cc3Cl)cc(=O)n2c1[C@@H]1C[C@H]1C#N` [Compound 52, (1R,2R)-2-[2-[[5-chloro-3-(trifluoromethyl)pyrazol-1-yl]methyl]-7-methoxy-4-oxo-pyrido[1,2-a]pyrimidin-6-yl]cyclopropanecarbonitrile], the Emax turned out to be 120% and the 50% effective concentration (EC50) came out at 0.079 µM.
In the same order, the values of `O=c1cc(Cn2nc(C(F)(F)F)cc2Cl)nc2cc(C(F)(F)F)cc(Cl)n12` [Compound 54, 6-chloro-2-[[5-chloro-3-(trifluoromethyl)pyrazol-1-yl]methyl]-8-(trifluoromethyl)pyrido[1,2-a]pyrimidin-4-one] are 150% and 24.7 µM.
In the case of `CNC(=O)c1c(C)ccc2nc(Cc3cccc(C#N)c3F)cc(=O)n12` [Compound 25, 2-[(3-cyano-2-fluoro-phenyl)methyl]-N,7-dimethyl-4-oxo-pyrido[1,2-a]pyrimidine-6-carboxamide], the Emax worked out at 51%.
On to `CCNC(=O)c1c(C)ccc2nc(Cn3nc(C4CC4)cc3C(F)(F)F)cc(=O)n12` [Compound 18, 2-[[3-cyclopropyl-5-(trifluoromethyl)pyrazol-1-yl]methyl]-N-ethyl-7-methyl-4-oxo-pyrido[1,2-a]pyrimidine-6-carboxamide], for which the Emax came to 122% and the 50% effective concentration (EC50) was 16.2 µM.
The corresponding values for `CC(=O)c1cccc2nc(Cn3nc(C(F)(F)F)cc3Cl)cc(=O)n12` [Compound 49, 6-acetyl-2-[[5-chloro-3-(trifluoromethyl)pyrazol-1-yl]methyl]pyrido[1,2-a]pyrimidin-4-one] are 126% and 12.3 µM.
For `N#C[C@H]1C[C@@H]1c1c(F)ccc2nc(Cn3nc(C(F)(F)F)cc3Cl)cc(=O)n12` [Compound 46, (1S,2S)-2-[2-[[5-chloro-3-(trifluoromethyl)pyrazol-1-yl]methyl]-7-fluoro-4-oxo-pyrido[1,2-a]pyrimidin-6-yl]cyclopropanecarbonitrile], the Emax amounted to 107% and the concentration for a half-maximal effect (EC50) turned out to be 3.22 µM.
Turning to `CCNC(=O)c1c(C)ccc2nc(COc3ccc(F)cc3)cc(=O)n12` [Compound 16, N-ethyl-2-[(4-fluorophenoxy)methyl]-7-methyl-4-oxo-pyrido[1,2-a]pyrimidine-6-carboxamide], the Emax is 159% and the concentration for a half-maximal effect (EC50) was found to be 3.6 µM.
As to `Cc1ccc2nc(Cn3nc(Cl)cc3C(F)(F)F)cc(=O)n2c1C1CC1C#N` (centres unmarked) [Compound 44, 2-[2-[[3-chloro-5-(trifluoromethyl)pyrazol-1-yl]methyl]-7-methyl-4-oxo-pyrido[1,2-a]pyrimidin-6-yl]cyclopropanecarbonitrile], the Emax is 158% and the EC50 was determined as 0.227 µM.
With `CNC(=O)c1c(C)ccc2nc(Cc3cccc(Cl)c3F)cc(=O)n12` [Compound 23, 2-[(3-chloro-2-fluoro-phenyl)methyl]-N,7-dimethyl-4-oxo-pyrido[1,2-a]pyrimidine-6-carboxamide], the Emax turned out to be 59%.
For `N#C[C@H]1C[C@@H]1c1c(Cl)ccc2nc(Cn3nc(C(F)(F)F)cc3Cl)cc(=O)n12` [Compound 42, (1S,2S)-2-[7-chloro-2-[[5-chloro-3-(trifluoromethyl)pyrazol-1-yl]methyl]-4-oxo-pyrido[1,2-a]pyrimidin-6-yl]cyclopropanecarbonitrile], the Emax is 110% and the 50% effective concentration (EC50) is 10.6 µM.
As to `Cc1ccc2nc(Cn3nc(C(F)(F)F)cc3C3CC3)cc(=O)n2c1C(=O)NCC(F)(F)F` [Compound 33, 2-[[5-cyclopropyl-3-(trifluoromethyl)pyrazol-1-yl]methyl]-7-methyl-4-oxo-N-(2,2,2-trifluoroethyl)pyrido[1,2-a]pyrimidine-6-carboxamide], the Emax amounted to 198%.
Regarding `Cc1cc(C2CC2C#N)n2c(=O)cc(Cn3nc(Cl)cc3C(F)(F)F)nc2c1` (centres unmarked) [Compound 43, 2-[2-[[3-chloro-5-(trifluoromethyl)pyrazol-1-yl]methyl]-8-methyl-4-oxo-pyrido[1,2-a]pyrimidin-6-yl]cyclopropanecarbonitrile], the Emax came to 145% and the 50% effective concentration (EC50) is 0.269 µM.
Take `Cc1ccc2nc(Cn3nc(C(F)(F)F)cc3Cl)cc(=O)n2c1[C@H]1C[C@@H]1CO` [Compound 37, 2-[[5-chloro-3-(trifluoromethyl)pyrazol-1-yl]methyl]-6-[(1S,2S)-2-(hydroxymethyl)cyclopropyl]-7-methyl-pyrido[1,2-a]pyrimidin-4-one]: the Emax stood at 127%.
In the case of `Cc1ccc2nc(Cn3nc(C(F)(F)F)cc3Cl)cc(=O)n2c1[C@H]1C[C@@H]1C#N` [Compound 34, (1S,2S)-2-[2-[[5-chloro-3-(trifluoromethyl)pyrazol-1-yl]methyl]-7-methyl-4-oxo-pyrido[1,2-a]pyrimidin-6-yl]cyclopropanecarbonitrile], the Emax came to 99% and the EC50 worked out at 25.5 µM.
The corresponding values for `CCN(Cc1cc(=O)n2c(C)cccc2n1)c1ccc(F)cc1` [Compound 7, 2-[(N-ethyl-4-fluoro-anilino)methyl]-6-methyl-pyrido[1,2-a]pyrimidin-4-one] are 111% and 13.6 µM.
Consider `N#C[C@@H]1C[C@H]1c1cccc2nc(Cn3nc(C(F)(F)F)cc3Cl)cc(=O)n12` [Compound 40, (1R,2R)-2-[2-[[5-chloro-3-(trifluoromethyl)pyrazol-1-yl]methyl]-4-oxo-pyrido[1,2-a]pyrimidin-6-yl]cyclopropanecarbonitrile], for which the Emax turned out to be 148%.
For the compound `COc1ccc2nc(Cn3nc(C(F)(F)F)cc3Cl)cc(=O)n2c1[C@H]1C[C@@H]1C#N` [Compound 53, (1S,2S)-2-[2-[[5-chloro-3-(trifluoromethyl)pyrazol-1-yl]methyl]-7-methoxy-4-oxo-pyrido[1,2-a]pyrimidin-6-yl]cyclopropanecarbonitrile], the Emax is 100%.
